Legend:
Assay in all cases: relative viability (nuclei count vs DMSO), 5 days (fraction); higher = more cells survive
[1] = compound: COc1cc2/c(=N/c3ccc(Br)cc3F)nc[nH]c2cc1OCC1CCN(C)CC1 [Vandetanib] + CS(=O)(=O)CCNCc1ccc(-c2ccc3ncnc(Nc4ccc(OCc5cccc(F)c5)c(Cl)c4)c3c2)o1 [Lapatinib] (partner 2 µM)
In short: (§1)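 Dosing by pin tool came one day after lung cancer cell lines were seeded in 1536-well plates, using either one drug or a fixed anchor-drug dose plus five library-drug doses (not always all listed) in √10 steps. After 5 days, nuclei were counted on 4× images. Relative viability is treated-well nuclei count divided by vehicle-well nuclei count, and values are medians of duplicate plates.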

[2] = compound: C#Cc1cccc(Nc2ncnc3cc(OC)c(OCCCCCCC(=O)NO)cc23)c1 [CUDC-101] + C[C@@H](Oc1cc(-c2cnn(C3CCNCC3)c2)cnc1N)c1c(Cl)ccc(F)c1Cl [Crizotinib] (partner 1 µM)
In short: as §1

[3] = compound: C1=CC=C2C(=C1)N=C(S2)C(C#N)C3=NC(=NC=C3)NCCC4=CN=CC=C4 + CC(=O)c1c(C)c2cnc(Nc3ccc(N4CCNCC4)cn3)nc2n(C2CCCC2)c1=O [Palbociclib] (partner 0.5 µM)
In short: as §1

[4] = compound: C1=CC=C2C(=C1)N=C(S2)C(C#N)C3=NC(=NC=C3)NCCC4=CN=CC=C4 + Cc1nc(Nc2ncc(C(=O)Nc3c(C)cccc3Cl)s2)cc(N2CCN(CCO)CC2)n1 [Dasatinib] (partner 0.075 µM)
In short: as §1

Cell Line: RERF-LC-KJ
- relative viability ([1]; first compound 0.02 µM): 0.848
- relative viability ([1]; first compound 0.06325 µM): 0.839
- relative viability ([1]; first compound 0.2 µM): 0.827
- relative viability ([1]; first compound 0.6325 µM): 0.843
- relative viability ([1]; first compound 2 µM): 0.878
- relative viability ([2]; first compound 0.01 µM): 0.771
- relative viability ([2]; first compound 0.03162 µM): 0.903
- relative viability ([2]; first compound 0.1 µM): 0.788
- relative viability ([2]; first compound 0.3162 µM): 0.825
- relative viability ([2]; first compound 1 µM): 0.686
- relative viability ([3]; first compound 0.005 µM): 0.977
- relative viability ([3]; first compound 0.01581 µM): 1.13
- relative viability ([3]; first compound 0.05 µM): 1.05
- relative viability ([3]; first compound 0.1581 µM): 1.12
- relative viability ([3]; first compound 0.5 µM): 1.01
- relative viability ([4]; first compound 0.005 µM): 0.796
- relative viability ([4]; first compound 0.01581 µM): 0.863
- relative viability ([4]; first compound 0.05 µM): 0.756
- relative viability ([4]; first compound 0.1581 µM): 0.952
- relative viability ([4]; first compound 0.5 µM): 0.527

Cell Line: NCI-H1975
- relative viability ([1]; first compound 0.02 µM): 0.846
- relative viability ([1]; first compound 0.06325 µM): 0.831
- relative viability ([1]; first compound 0.2 µM): 0.862
- relative viability ([1]; first compound 0.6325 µM): 0.858
- relative viability ([1]; first compound 2 µM): 0.81
- relative viability ([2]; first compound 0.01 µM): 1.05
- relative viability ([2]; first compound 0.03162 µM): 1.02
- relative viability ([2]; first compound 0.1 µM): 0.964
- relative viability ([2]; first compound 0.3162 µM): 1.1
- relative viability ([2]; first compound 1 µM): 0.872
- relative viability ([3]; first compound 0.005 µM): 0.565
- relative viability ([3]; first compound 0.01581 µM): 0.538
- relative viability ([3]; first compound 0.05 µM): 0.656
- relative viability ([3]; first compound 0.1581 µM): 0.832
- relative viability ([3]; first compound 0.5 µM): 0.408
- relative viability ([4]; first compound 0.005 µM): 0.352
- relative viability ([4]; first compound 0.01581 µM): 0.333
- relative viability ([4]; first compound 0.05 µM): 0.35
- relative viability ([4]; first compound 0.1581 µM): 0.37
- relative viability ([4]; first compound 0.5 µM): 0.24

Cell Line: PC-3 [JPC-3]
- relative viability ([1]; first compound 0.02 µM): 0.442
- relative viability ([1]; first compound 0.06325 µM): 0.482
- relative viability ([1]; first compound 0.2 µM): 0.49
- relative viability ([1]; first compound 0.6325 µM): 0.458
- relative viability ([1]; first compound 2 µM): 0.41
- relative viability ([2]; first compound 0.01 µM): 0.983
- relative viability ([2]; first compound 0.03162 µM): 0.97
- relative viability ([2]; first compound 0.1 µM): 0.82
- relative viability ([2]; first compound 0.3162 µM): 0.82
- relative viability ([2]; first compound 1 µM): 0.278
- relative viability ([3]; first compound 0.005 µM): 0.592
- relative viability ([3]; first compound 0.05 µM): 0.534
- relative viability ([3]; first compound 0.1581 µM): 0.532
- relative viability ([3]; first compound 0.5 µM): 0.515
- relative viability ([4]; first compound 0.005 µM): 0.877
- relative viability ([4]; first compound 0.01581 µM): 1.07
- relative viability ([4]; first compound 0.05 µM): 0.962
- relative viability ([4]; first compound 0.1581 µM): 1.08
- relative viability ([4]; first compound 0.5 µM): 0.73

Cell Line: EPLC-272H
- relative viability ([1]; first compound 0.02 µM): 1.05
- relative viability ([1]; first compound 0.06325 µM): 0.791
- relative viability ([1]; first compound 0.2 µM): 0.933
- relative viability ([1]; first compound 0.6325 µM): 1.02
- relative viability ([1]; first compound 2 µM): 0.168
- relative viability ([2]; first compound 0.01 µM): 0.904
- relative viability ([2]; first compound 0.03162 µM): 0.904
- relative viability ([2]; first compound 0.1 µM): 0.86
- relative viability ([2]; first compound 0.3162 µM): 0.751
- relative viability ([2]; first compound 1 µM): 0.582
- relative viability ([3]; first compound 0.005 µM): 0.358
- relative viability ([3]; first compound 0.01581 µM): 0.32
- relative viability ([3]; first compound 0.05 µM): 0.317
- relative viability ([3]; first compound 0.1581 µM): 0.284
- relative viability ([3]; first compound 0.5 µM): 0.304
- relative viability ([4]; first compound 0.005 µM): 0.283
- relative viability ([4]; first compound 0.01581 µM): 0.304
- relative viability ([4]; first compound 0.05 µM): 0.264
- relative viability ([4]; first compound 0.1581 µM): 0.374
- relative viability ([4]; first compound 0.5 µM): 0.312
